Data taken from patent US20040220164A1, “Triaza compound immunoregulatory agents” (priority 2001, published 2004).
Converted amounts (≈) assume the structure as drawn. Read-outs that look alike come from different tables or passages of the source.

Assays:
[1] = target: T1, CD4 (Homo sapiens, UniProt P01730); assay: CD4 down-modulation, flow cytometry with FITC-conjugated anti-CD4 (SK3) mAb, MT-4 cells; type: cell-based; parameters: To study the effect of the CADA derivatives on surface CD4 antigen expression, MT-4 and SupT1 cells were incubated; endogenous in cells; host or cells: MT-4, SupT1, PBMC; details: for IC50: MT-4 cells, day 3, read-out: IC50 CD4 (50% inhibition of extracellular CD4 expression) (converted); for CD4 down-modulating activity, fold less active than CADA: compared to CADA, MT-4 cells (stated for some compounds); for CD4 down-modulating activity compared with CADA or parent analog (in words): structure-activity discussion of Table 5 (MT-4 and SupT1 cells)
Method: Flow Cytometric Analyses. To study the effect of the CADA derivatives on surface CD4 antigen expression, MT-4 and SupT1 cells were incubated with a serial 5-fold dilution of the compounds (50, 10, 2, 0.4 and 0.08 μg/ml) or medium at 37° C. […] Briefly, after washing with phosphate-buffered saline (PBS) containing 2% fetal calf serum (FCS), cells were incubated with FITC-conjugated anti-CD4 (SK3) mAb for 30 min at 4° C. As a negative control for a specific background staining, cells were stained in parallel with Simultest Control γ1/γ^2a (Becton Dickinson). Then the cells were washed, fixed with 1% formaldehyde and analyzed by flow cytometry in a FACScalibur (Becton Dickinson, San Jose, Calif., USA). Data were acquired and analyzed with CellQuest software (Becton Dickinson). For the calculation of the CD4 receptor expression, the mean fluorescence intensity (MFI) of each sample was expressed as percentage of the MFI of control cells (after subtracting the MFI of the isotype control). Finally, the IC50 value of the compounds (i.e., the concentration of the compound required for 50% inhibition of extracellular CD4 expression) was calculated.

[2] = tested on: HHV-7 (KHR strain); assay: Anti-HHV-7 assay in SupT1 cells (antigen expression, flow cytometry, Example 3); type: cell-based
Method: For HHV-7, five-fold dilutions of the compounds were added in 500 μl culture medium in 24-well flat bottom plates (Iwaki, Japan), whereupon 2×10^5 SupT1 cells were added in 400 μl culture medium. After 30 min incubation at room temperature, 100 μl of HHV-7 stock was added to each well. HHV-7-infected and mock-infected SupT1 cells were cultured in a final volume of 1 ml medium in the absence of the compounds. On day 4, half of the medium and the cells were replaced and fresh medium without new compound was added. This procedure was repeated every 2 or 3 days. The CPE was checked regularly microscopically. When CPE was observed, the HHV-7 antigen expression was monitored by flow cytometry, as described previously (Zhang, Y. et al. (1999) “Selective activity of various antiviral compounds against HHV-7 infection Antiviral Res. 43, 23-35.)

[3] = tested on: HIV-1 strain NL4.3; assay: Anti-HIV-1 assay in MT-4 cells (p24 Ag ELISA, Example 3); type: cell-based
Method: Antiviral Assays. For HIV-1, MT-4 cells were infected with the HIV-1 strain NL4.3. Briefly, five-fold dilutions of the compounds (in 100 μl) were added to 96-well flat bottom plates (Iwaki, Japan). Then, to each well, 7.5×10^4 MT-4 cells were added in 50 μl medium, followed by 50 μl of diluted HIV-1 stock (strain NL4.3). Cytopathic effect (CPE) induced by the virus was checked regularly microscopically. When strong CPE was observed (after 3 to 5 days of incubation) in untreated HIV-1 infected cells, the supernatant was collected, stored at −20° C. and analyzed for HIV-1 core antigen by p24 Ag ELISA (NEN™, PerkinElmer Life Sciences, Boston, Mass.). Finally, the IC50 value of the compounds (i.e., the concentration of the compound required for 50% reduction of HIV infection as measured by viral p24 antigen level in the supernatant of infected MT-4 cells) was calculated.

[4] = target: T1, CD4; assay: CD4 down-modulation, flow cytometry with FITC-conjugated anti-CD4 (SK3) mAb, SupT1 cells; type: cell-based; parameters: To study the effect of the CADA derivatives on surface CD4 antigen expression, MT-4 and SupT1 cells were incubated; endogenous in cells; host or cells: MT-4, SupT1, PBMC; details: day 4, read-out: IC50 CD4 (50% inhibition of extracellular CD4 expression) (converted)
Method: Flow Cytometric Analyses. To study the effect of the CADA derivatives on surface CD4 antigen expression, MT-4 and SupT1 cells were incubated with a serial 5-fold dilution of the compounds (50, 10, 2, 0.4 and 0.08 μg/ml) or medium at 37° C. Cell surface CD4 antigen expression was analyzed at day 3 (MT-4) or day 4 (SupT1). Briefly, after washing with phosphate-buffered saline (PBS) containing 2% fetal calf serum (FCS), cells were incubated with FITC-conjugated anti-CD4 (SK3) mAb for 30 min at 4° C. As a negative control for a specific background staining, cells were stained in parallel with Simultest Control γ1/γ^2a (Becton Dickinson). Then the cells were washed, fixed with 1% formaldehyde and analyzed by flow cytometry in a FACScalibur (Becton Dickinson, San Jose, Calif., USA). Data were acquired and analyzed with CellQuest software (Becton Dickinson). For the calculation of the CD4 receptor expression, the mean fluorescence intensity (MFI) of each sample was expressed as percentage of the MFI of control cells (after subtracting the MFI of the isotype control). Finally, the IC50 value of the compounds (i.e., the concentration of the compound required for 50% inhibition of extracellular CD4 expression) was calculated.

[5] = Cytotoxicity assay (trypan blue exclusion, propidium iodide); type: cell-based, human; details: human, read-out: CC50 (50% cytotoxic concentration)
Method: Cytotoxicity Assay. Cellular toxicity of the compounds was measured by trypan blue exclusion and also by Propidium Iodide by flow cytometry after 3 or 4 days of incubation, in parallel with the CD4 antigen expression. The CC50 value of each CADA analog is the concentration (in μg/ml) required to reduce the viability of the cells by 50%.

[6] = target: T1, CD4; assay: Cell surface CD4 expression by flow cytometry (anti-CD4 mAb Leu3a-PE); type: cell-based; parameters: To study the effect of the CADA derivatives on surface CD4 antigen expression, MT-4 and SupT1 cells were incubated; endogenous in cells; host or cells: MT-4, SupT1, PBMC
Method: FIGS. 2A-2C. Surface CD4 expression in MT-4 cell line, SupT1 cell line and PBMCs after incubation with CADA hydrochloride (3.2 or 16 μM) for 1 and 4 days. (A) Cell surface CD4 expression of control MT-4 cells and MT-4 cells treated with CADA (3.2 μM) for 1 day or 4 days. (B) Cell surface CD4 expression of control SupT1 cells and SupT1 cells treated with CADA (3.2 μM) for 1 day or 4 days. (C) Cell surface CD4 expression of control PBMCs and PBMCs treated with CADA (16 μM) for 1 day or 4 days. The cells were stained with anti-CD4 mAb (Leu3a-PE). Percentages of fluorescent cells and MFI (mean fluorescence intensity) are indicated in each histogram.
FIG. 4. Comparison of the effects on CD4 modulation by ATA (24 μM), CADA hydrochloride (16 μM) and PMA (8 nM) in SupT1 cells after incubation with the compounds analyzed after 20 minutes, 4 hours, 1 day and 4 days.
Cells were incubated with CADA hydrochloride and the CD4 expression on the cell surface was analyzed. […] In peripheral blood mononuclear cells (PBMCs), the percentage of CD4 expression decreased to 0.2% after incubation with CADA (16 μM) for 4 days (FIG. 2).
Expression of various other surface antigens was also examined in MT-4 cells, SupT1 cells and PBMCs after incubation with CADA (16 μM) or CADA-free medium at 37° C. for 4 days. After washing with phosphate-buffered saline (PBS) containing 2% FCS(fetal calf serum), the cells were incubated with mAb (as indicated in Table 1) for 20 min at 4° C. Then the cells were washed, fixed with 1% formaldehyde and analyzed by flow cytometry. All mAbs were purchased from Becton-Dickinson (Erembodegem, Belgium).
CADA was compared with ATA and PMA with regard to their down-modulating effects. […] At day 4, the CD4 expression in SupT1 cells treated with CADA reduced to 1.2%.

[7] = SUP-T1, SupT1 cells, read-out: IC50 HHV-7 (50% reduction of HHV-7 antigen expression)
[8] = Human immunodeficiency virus 1, MT4, MT-4 cells, read-out: IC50 HIV-1 (NL4.3), p24 Ag ELISA

| Structure (SMILES) | IC50 [1] [µM] | CD4 down-modulating activity, fold less active than CADA [1] [fold] | IC50 [2, 7] [µg/mL] | IC50 [3, 8] [µg/mL] | IC50 [4] [µM] | CD4 down-modulating activity compared with CADA or parent analog (in words) [1] | down-regulation of CD4 expression (in words) [6] | CC50 ([5]; MT-4 cells) [µg/mL] | CC50 ([5]; SupT1 cells) [µg/mL] | IC50 ([2]; SUP-T1, read-out: IC50 HHV-7 (50% reduction of HHV-7 antigen expression)) [µg/mL] | IC50 ([3]; Human immunodeficiency virus 1, MT4, read-out: IC50 HIV-1 (NL4.3), p24 Ag ELISA) [µg/mL] |
| --- | --- | --- | --- | --- | --- | --- | --- | --- | --- | --- | --- |
| Cc1ccc(S(=O)(=O)N2CCCN(Cc3ccccc3)CCCN(S(=O)(=O)c3ccc(C)cc3)CC(CO)C2)cc1 [HJC321] | 3.32 | 6 | 1.94 (≈ 3.23 µM) | 3.88 (≈ 6.47 µM) | 5.28 | – | – | 26.1 (≈ 43.5 µM) | > 50 | – | – |
| Cc1ccc(S(=O)(=O)N2CCCN(Cc3ccccc3)CCCN(S(=O)(=O)c3ccc(C)cc3)CCC2)cc1 [MFS-SC001] | 12.4 | 20 | 0.65 (≈ 1.14 µM) | > 10 | 7.18 | – | – | 23.1 (≈ 40.5 µM) | 32.2 (≈ 56.5 µM) | – | – |
| C=C1CN(S(=O)(=O)c2ccc(C)cc2)CCCN(CC2CC=CCC2)CCCN(S(=O)(=O)c2ccc(C)cc2)C1 (stereo not shown) [QJ023] | 0.444 | – | 0.1 (≈ 0.171 µM) | 0.29 (≈ 0.495 µM) | 0.615 | slightly enhanced | down-regulate CD4 expression | 22.2 (≈ 37.9 µM) | 28.9 (≈ 49.3 µM) | – | – |
| C=C1CN(S(=O)(=O)c2ccc(C)cc2)CCCN(Cc2ccc[nH]2)CCCN(S(=O)(=O)c2ccc(C)cc2)C1 [QJ027] | 6.78 | 10 | – | – | 10.5 | – | down-regulate CD4 expression | 20.2 (≈ 35.4 µM) | 21.7 (≈ 38 µM) | 3.1 (≈ 5.43 µM) | 4.4 (≈ 7.71 µM) |
| C=C1CN(S(=O)(=O)c2ccc(C)cc2)CCCN(CCC)CCCN(S(=O)(=O)c2ccc(C)cc2)C1 [QJ029] | 4.83 | – | 0.91 (≈ 1.7 µM) | 2 (≈ 3.75 µM) | 5.73 | somewhat in between | down-regulate CD4 expression | 20.7 (≈ 38.8 µM) | 22.2 (≈ 41.6 µM) | – | – |
| C=C1CN(S(=O)(=O)c2ccc(C)cc2)CCCN(Cc2ccncc2)CCCN(S(=O)(=O)c2ccc(C)cc2)C1 [QJ030] | 4.41 | 9 | 1.59 (≈ 2.73 µM) | 2.36 (≈ 4.05 µM) | 12.4 | – | down-regulate CD4 expression | 21.3 (≈ 36.5 µM) | > 50 | – | – |

Further lines, with some results ahead:

| IC50 [1] [µM] | CD4 down-modulating activity, fold less active than CADA [1] [fold] | IC50 [2, 7] [µg/mL] | IC50 [3, 8] [µg/mL] | IC50 [4] [µM] | CD4 down-modulating activity compared with CADA or parent analog (in words) [1] | down-regulation of CD4 expression (in words) [6] | Structure (SMILES) | CC50 ([5]; MT-4 cells) [µg/mL] | CC50 ([5]; SupT1 cells) [µg/mL] | IC50 ([2]; SUP-T1, read-out: IC50 HHV-7 (50% reduction of HHV-7 antigen expression)) [µg/mL] | IC50 ([3]; Human immunodeficiency virus 1, MT4, read-out: IC50 HIV-1 (NL4.3), p24 Ag ELISA) [µg/mL] |
| --- | --- | --- | --- | --- | --- | --- | --- | --- | --- | --- | --- |
| > 17.1 | – | 4.43 (≈ 7.59 µM) | > 10 | > 85.6 | significantly decreased | – | Cc1ccc(S(=O)(=O)N2CCCN(Cc3ccccc3)CCCN(S(=O)(=O)c3ccc(C)cc3)CC(=O)C2)cc1 [MFS010] | 29.3 (≈ 50.2 µM) | > 50 | – | – |
| > 116 | – | > 50 | > 50 | > 116 | significant loss | – | C=C1CN(S(C)(=O)=O)CCCN(Cc2ccccc2)CCCN(S(C)(=O)=O)C1 [MFS105] | > 50 | > 50 | – | – |
| > 13.8 | – | 0.92 (≈ 1.27 µM) | ≥ 10 | > 68.9 | significant loss | – | C=C1CN(S(=O)(=O)c2ccc(COCCCC)cc2)CCCN(Cc2ccccc2)CCCN(S(=O)(=O)c2ccc(COCCCC)cc2)C1 [MFS117] | 18.9 (≈ 26 µM) | > 50 | – | – |
